Laboratory results: US11660293B2, “Substituted 2-azabicyclo[3.1.1]heptane and 2-azabicyclo[3.2.1]octane derivatives as orexin receptor antagonists” (Chronos Therapeutics Limited, priority 2017, dated 2023)

How the values were obtained:
[1] = target: human Orexin type 1 receptors (Homo sapiens (Human), UniProt O43613); test: Scintillation Proximity Assay (SPA) binding assay, [3H]SB-674042 displacement, CHO-hOX1 membranes
[2] = target: human Orexin type 2 receptors (Homo sapiens (Human), UniProt O43614); test: Scintillation Proximity Assay (SPA) binding assay, [3H]EMPA displacement, HEK-hOX2 membranes
human Orexin type 2 receptors, sequence (O43614 whole entry): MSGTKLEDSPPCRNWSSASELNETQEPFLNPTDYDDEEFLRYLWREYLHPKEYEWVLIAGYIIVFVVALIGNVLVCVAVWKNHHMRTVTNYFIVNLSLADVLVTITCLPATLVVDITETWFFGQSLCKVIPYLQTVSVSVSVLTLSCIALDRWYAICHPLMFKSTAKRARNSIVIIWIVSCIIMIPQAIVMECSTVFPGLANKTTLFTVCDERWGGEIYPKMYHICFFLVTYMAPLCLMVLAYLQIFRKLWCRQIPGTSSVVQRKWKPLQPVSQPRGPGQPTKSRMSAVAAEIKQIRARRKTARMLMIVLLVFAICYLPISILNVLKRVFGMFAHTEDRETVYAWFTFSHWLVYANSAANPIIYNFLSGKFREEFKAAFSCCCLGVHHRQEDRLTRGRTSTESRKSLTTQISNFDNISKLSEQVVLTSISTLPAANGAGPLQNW

human Orexin type 1 receptors, sequence (O43613 whole entry): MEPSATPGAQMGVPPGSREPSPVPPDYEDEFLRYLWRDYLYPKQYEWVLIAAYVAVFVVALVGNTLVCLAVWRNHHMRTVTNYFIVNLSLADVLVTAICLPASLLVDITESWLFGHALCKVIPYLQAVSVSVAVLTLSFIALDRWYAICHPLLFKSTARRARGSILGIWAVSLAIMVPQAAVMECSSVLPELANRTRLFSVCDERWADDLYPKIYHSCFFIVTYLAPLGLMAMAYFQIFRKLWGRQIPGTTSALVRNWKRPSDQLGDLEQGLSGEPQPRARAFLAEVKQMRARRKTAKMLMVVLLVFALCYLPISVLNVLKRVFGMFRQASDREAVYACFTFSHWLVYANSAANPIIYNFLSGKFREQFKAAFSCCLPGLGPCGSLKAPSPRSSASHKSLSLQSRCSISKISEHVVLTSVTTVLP

Cc1ccc(-n2nccn2)c(C(=O)N2C3CC(C3)[C@H](C)C2COc2nc3ccc(F)cc3s2)n1 (stereo partly drawn) [Example 110, trans-6-fluoro-2-({4-methyl-2-[6-methyl-3-(2H-1,2,3-triazol-2-yl)pyridine-2-carbonyl]-2-azabicyclo[3.1.1]heptan-3-yl}methoxy)-1,3-benzothiazole]
OX1 pKi (SPA binding) ([1]; Table 1, [3H]SB-674042 2 nM): 7 | OX2 pKi (SPA binding) ([2]; Table 1, [3H]EMPA 2 nM): 6.06

Cc1ccc(-n2nccn2)c(C(=O)N2C3CC(C3)[C@H](C)C2COc2ccc(Cl)cc2)n1 (stereo partly drawn) [Example 112, trans-3-[(4-chlorophenoxy)methyl]-4-methyl-2-[6-methyl-3-(2H-1,2,3-triazol-2-yl)pyridine-2-carbonyl]-2-azabicyclo[3.1.1]heptane]
OX1 pKi (SPA binding) ([1]; Table 1, [3H]SB-674042 2 nM): 7.83 | OX2 pKi (SPA binding) ([2]; Table 1, [3H]EMPA 2 nM): 5.92

Cc1nc(C(=O)N2C3CC(C3)[C@@H](C)C2COc2ccc(F)cc2)c(-n2nccn2)s1 (stereo partly drawn) [Example 140, cis-3-[(4-flurophenoxy)methyl]-4-methyl-2-[2-methyl-5-(2H-1,2,3-triazol-2-yl)-1,3-thiazole-4-carbonyl]-2-azabicyclo[3.1.1]heptane]
OX1 pKi (SPA binding) ([1]; Table 2, [3H]SB-674042 2 nM): 7.49 | OX2 pKi (SPA binding) ([2]; Table 2, [3H]EMPA 2 nM): 6.22

Cc1ccc(-c2sc(C)nc2C(=O)N2C3CC(C3)[C@@H](C)C2COc2ccc(F)cc2)cn1 (stereo partly drawn) [Example 143, cis-3-[(4-fluorophenoxy)methyl]-4-methyl-2-[2-methyl-5-(6-methylpyridin-3-yl)-1,3-thiazole-4-carbonyl]-2-azabicylco[3.1.1]heptane]
OX1 pKi (SPA binding) ([1]; Table 2, [3H]SB-674042 2 nM): 7.14 | OX2 pKi (SPA binding) ([2]; Table 2, [3H]EMPA 2 nM): 5.93

Cc1ccc(-n2nccn2)c(C(=O)N2C3CC(C3)[C@H](C)C2CNc2nc3ccc(F)cc3s2)n1 (stereo partly shown) [Example 147]
OX1 pKi (SPA binding) ([1]; Table 2, [3H]SB-674042 2 nM): 7.57 | OX2 pKi (SPA binding) ([2]; Table 2, [3H]EMPA 2 nM): 6.66

Cc1ccc(-n2nccn2)c(C(=O)N2C3CC(C3)[C@H](C)C2CNc2ncc3ccccc3n2)n1 (stereo partly drawn) [Example 149, trans-N-({4-methyl-2-[6-methyl-3-(2H-,2,3-triazol-2-yl)pyridine-2-carbonyl]-2-azabicyclo[3.1.1]heptan-3-yl}methyl)quinazolin-2-amine]
OX1 pKi (SPA binding) ([1]; Table 2, [3H]SB-674042 2 nM): 6.82 | OX2 pKi (SPA binding) ([2]; Table 2, [3H]EMPA 2 nM): 5.72

Cc1ccc(-n2nccn2)c(C(=O)N2C3CC(C3)[C@H](C)C2CNc2nc3ccccc3s2)n1 (stereo partly drawn) [Example 150, trans-N-({4-methyl-2-[6-methyl-3-(2H-1,2,3-triazol-2-yl)pyridine-2-carbonyl]-2-azabicyclo[3.1.1]heptan-3-yl}methyl)-1,3-benzothiazol-2-amine]
OX1 pKi (SPA binding) ([1]; Table 2, [3H]SB-674042 2 nM): 7.5 | OX2 pKi (SPA binding) ([2]; Table 2, [3H]EMPA 2 nM): 6.14

Cc1ccc(-n2nccn2)c(C(=O)N2C3CC(C3)[C@@H](C)C2CNc2cc3ccccc3cn2)n1 (stereo partly drawn) [Example 151, cis-N-({4-methyl-2-[6-methyl-3-(2H-1,2,3-triazol-2-yl)pyridine-2-carbonyl]-2-azabicyclo[3.1.1]heptan-3-yl}methyl)isoquinolin-3-amine]
OX1 pKi (SPA binding) ([1]; Table 2, [3H]SB-674042 2 nM): 7.59 | OX2 pKi (SPA binding) ([2]; Table 2, [3H]EMPA 2 nM): 5.42

Cc1ccc(-n2nccn2)c(C(=O)N2C3CC(C3)[C@@H](C)C2CNc2ncc3ccccc3n2)n1 (stereo partly drawn) [Example 155, cis-N-({4-methyl-2-[6-methyl-3-(2H-1,2,3-triazol-2-yl)pyridin-2-carbonyl]-2-azabicyclo[3.1.1]heptan-3-yl}methyl)quinazolin-2-amine]
OX1 pKi (SPA binding) ([1]; Table 2, [3H]SB-674042 2 nM): 7.71 | OX2 pKi (SPA binding) ([2]; Table 2, [3H]EMPA 2 nM): 5.49

C[C@@H]1C2CC(C2)N(C(=O)c2cc(C#N)ccc2-n2nccn2)C1CNc1nc2ccc(F)cc2s1 (stereo partly drawn) [Example 175, cis-3-(3-{[(6-fluoro-1,3-benzothiazol-2-yl)amino]methyl}-4-methyl-2-azabicyclo[3.1.1]heptane-2-carbonyl)-4-(2H-1,2,3-triazol-2-yl)benzonitrile]
OX1 pKi (SPA binding) ([1]; Table 2, [3H]SB-674042 2 nM): 8.41 | OX2 pKi (SPA binding) ([2]; Table 2, [3H]EMPA 2 nM): 6.02

Cc1ccc(-n2nccn2)c(C(=O)N2C3CC(C3)[C@@H](C)C2CNc2nc3ccccc3s2)n1 (stereo partly drawn) [Example 178, cis-N-({4-methyl-2-[6-methyl-3-(2H-1,2,3-triazol-2-yl)pyridine-2-carbonyl]-2-azabicyclo[3.1.1]heptan-3-yl}methyl)-1,3-benzothiazol-2-amine]
OX1 pKi (SPA binding) ([1]; Table 2, [3H]SB-674042 2 nM): 8.52 | OX2 pKi (SPA binding) ([2]; Table 2, [3H]EMPA 2 nM): 5.63
